# In patent US10945978B2, “Treatment and diagnosis of melanoma” (The Rockefeller University, priority 2012, dated 2021):
# Entries after “also recorded” stand apart in the source; their conditions may differ.
# Legend:
# ApoE = ApoE expression by qRT-PCR in human melanoma cells; assay type: cell-based; conditions: MeWo cells, 500 nM, 1 μM or 2 μM, 48 hours
# Description: Total RNA was extracted from various cell lines using the miRvana kit (AM1560, Applied Biosystems, Austin, Tex.). The expression levels of mature miRNAs were quantified using the Taqman miRNA expression assay (4427975-0002228, Applied Biosystems). RNU44 was used as an endogenous control for normalization. For mRNA expression analyses, 600 ng of total RNA was reverse transcribed using the cDNA First-Strand Synthesis Kit (18080-051, Invitrogen), and roughly 200 ng of the resulting cDNA was then mixed with SYBR green PCR Master Mix (4309155, Applied Biosystems) and the appropriate primers. Each reaction was performed in quadruplicate, and mRNA expression was quantified by performing real-time PCR amplification using an ABI Prism 7900HT Real-Time PCR System (Applied Biosystems). GAPDH was used as an endogenous control for normalization. The following primers were used: […]
# RNA was extracted from whole cell lysates using the Total RNA Purification Kit (17200, Norgen, Thorold, Canada). 600 ng of total RNA was then reverse transcribed into cDNA using the cDNA First-Strand Synthesis Kit (18080-051, Invitrogen), and quantitative real-time PCR amplification was performed as previously described (Pencheva et al., 2012) using an ABI Prism 7900HT Real-Time PCR System (Applied Biosystems, Austin, Tex.). Each PCR reaction was carried out in quadruplicates. Gene expression was normalized to GAPDH, which was used as an endogenous control.
# For every sample, 600 ng of RNA was reverse transcribed into cDNA using the cDNA First-Strand Synthesis kit (Invitrogen). Approximately 200 ng of cDNA was mixed with SYBR® green PCR Master Mix and the corresponding forward and reverse primers specific for detection of human ApoE. Each reaction was carried out in quadruplicates, and ApoE mRNA expression levels were measured by quantitative real-time PCR amplification using an ABI Prism 7900HT Real-Time PCR System (Applied Biosystems). The relative ApoE expression was determined using the ΔΔCt method. GAPDH was used as an endogenous control for normalization purposes.
# [1] = system: B16F10 parental and DTIC-resistant cells; test: Tumor growth by DTIC-sensitive and DTIC-resistant B16F10 cells; assay type: in vivo, mouse; conditions: dacarbazine 50 mg/kg, i.p., daily
# Description: First, the cells were treated with 500 μg/mL DTIC for one week. Following this initial DTIC treatment, the remaining (˜10%) viable cells were allowed to recover for one week, after which 750 rag/mL of DTIC was added to the cell media for 5 days. Subsequent to this high-dose treatment, the cells were allowed to recover in the presence of low-dose DTIC (100 jag/mL) for one week. The cells were then continuously cultured in cell media containing 200 rag/mL DTIC for at least one month prior to grafting the cells into mice. DTIC was added to fresh cancer cell media every 3 days.
# [2] = system: MeWo, MeWo-LM2, HT-144, SK-Mel-2 and SK-Mel-334.2 human melanoma cells; test: Trans-well matrigel cell invasion assay, melanoma cells; assay type: cell-based; conditions: 1 μM for 72 hours
# Description: Cancer cells were serum-starved in 0.2% FBS DMEM-based media for 12 hours. Trans-well invasion chambers (354480, BD Biosciences, Bedford, Mass.) were pre-equilibrated prior to beginning the assay by adding 0.5 mL of starvation media to the top and bottom chambers. After 30 minutes, the media in the top chamber was removed, and 0.5 mL of media containing 1×10^5 cancer cells was added into each matrigel-coated trans-well insert and incubated at 37° C. for 24 hours. For neutralization antibody and/or recombinant protein experiments, antibody/recombinant protein was added to each well at the start of the assay at the following concentrations as indicated in the figures: 5-40 μg/mL anti-ApoE 1D7 (Heart Institute, University of Ottawa), 5-40 μg/mL anti-IgG (AB-108-C, R&D Systems, Minneapolis, Minn.), 100 μM recombinant human ApoE3 (4696, BioVision, Mountain View, Calif.), and 100 μM BSA (A2153, Sigma-Aldrich). Upon completion of the assay, matrigel-coated inserts were washed with PBS, the cells at the top side of each insert were scraped off, and the inserts were fixed in 4% paraformaldehyde for 15 minutes. The inserts were then cut out and mounted onto slides using VectaShield mounting medium containing DAPI (H-1000, Vector Laboratories, Burlingame, Calif.). The basal side of each insert was imaged using an inverted fluorescence microscope (Zeiss Axiovert 40 CFL) at 5× magnification, taking three representative images for each insert. The number of invaded cells was quantified using ImageJ (NIH).
# The cell invasion assay was performed as previously described in detail (Pencheva et al., 2012) using a trans-well matrigel invasion chamber system (354480, BD Biosciences). In brief, various melanoma cells were cultured in the presence of DMSO, GW3965, T0901317, or Bexarotene at 1 μM for 56 hours, after which melanoma cells were switched to starvation media (0.2% FBS) for 16 hours in the presence of each drug. Following starvation, cells were seeded into matrigel-coated trans-well inserts, and the invasion assay was allowed to proceed for 24 hours at 37° C. For ApoE antibody neutralization experiments, 40 μg/mL 1D7 anti-ApoE blocking antibody (Heart Institute, University of Ottawa, Ottawa, Canada) or 40 t g/mL anti-IgG control antibody (AB-108-C, R&D Systems, Minneapolis, Minn.) was added to each trans-well insert at the start of the assay.
# The cells were then serum starved for 16 hours in 0.2% FBS media in the presence of each corresponding drug or DMSO. Following serum starvation, the cells were subjected to the trans-well invasion assay using a matrigel invasion chamber system (354480, BD Biosciences). Invasion chambers were pre-equilibrated prior to the assay by adding 0.5 mL of starvation media to the top and bottom wells. Meanwhile, cancer cells were trypsinized and viable cells were counted using trypan blue. Cancer cells were then resuspended at a concentration of 2×10^5 cells/1 mL starvation media, and 0.5 mL of cell suspension, containing 1×10^5 cells, was seeded into each trans-well. The invasion assay was allowed to proceed for 24 hours at 37° C. […] Following fixation, the inserts were washed in PBS, cut out, and mounted onto slides using VectaShield mounting medium containing DAPI nuclear stain (H-1000, Vector Laboratories). The basal side of each insert was imaged using an inverted fluorescence microscope (Zeiss Axiovert 40 CFL) at 5× magnification, and the number of DAPI-positive cells was quantified using ImageJ.
# [3] = system: B16F10 mouse melanoma cells; test: Subcutaneous B16F10 tumor growth in C57BL/6 mice; conditions: in chow: WO-2010-0138598 Ex. 9 10 or 100 mg/kg/day, SB742881 100 mg/kg/day
# Description: Animals were palpated weekly for tumor formation, after which sizeable tumors were measured twice a week. Tumor volume was calculated as (small diameter)^2×(large diameter)/2.
# [4] = system: human umbilical vein endothelial cells (HUVEC's); test: Endothelial recruitment assay (HUVEC migration towards melanoma cells); assay type: cell-based; conditions: MeWo, HT-144, SK-Mel-2, SK-Mel-334.2; 1 μM for 72 hours
# Description: 5×10^4 cancer cells were seeded into 24-well plates approximately 24 hours prior to the start of the assay. HUVEC's were grown to 80% confluency and serum starved in EGM-2 media supplemented with 0.2% FBS for 16 hours. HUVEC's were then pulsed with Cell Tracker Red CMTPX dye (C34552, Invitrogen) for 45 minutes. Meanwhile, cancer cells were washed with PBS, 0.5 mL of 0.2% FBS EGM-2 media was added to each well, and a 3.0 μm HTS Fluoroblock insert (351151, BD Falcon, San Jose, Calif.) was placed into each well. 1×10^5 HUVEC's, resuspended in 0.5 mL of starvation media, were seeded into each trans-well insert, and the recruitment assay was allowed to proceed for 16-18 hours at 37° C. For neutralization antibody and/or recombinant protein experiments, antibody/protein was then added to each well at the appropriate concentration as indicated in the figures: 40 μg/mL anti-ApoE 1D7, 40 μg/mL anti-IgG, 100 μM rhApoE3, and 100 μM BSA. Upon completion of the assay, the inserts were processed and analyzed as described for the matrigel invasion assay above (See Matrigel Invasion Assay).
# The endothelial recruitment assay was carried out as previously described (Pencheva et al., 2012; Png et al., 2012). Melanoma cells were treated with DMSO, GW3965, T0901317, or Bexarotene at 1 μM for 56 hours, after which 5×10^4 cells were seeded in a 24-well plate in the presence of each drug and allowed to attach for 16 hours prior to starting the assay. HUVEC cells were serum-starved overnight in EGM-2 media containing 0.2% FBS. The following day, 1×10^5 HUVEC cells were seeded into a 3.0 μm HTS Fluoroblock trans-well migration insert (351151, BD Falcon, San Jose, Calif.) fitted into each well containing cancer cells at the bottom. The HUVEC cells were allowed to migrate towards the cancer cells for 20 hours at 37° C., after which the inserts were processed as previously described (Pencheva et al., 2012). For ApoE antibody neutralization experiments, 40 μg/mL 1D7 anti-ApoE blocking antibody (Heart Institute, University of Ottawa, Ottawa, Canada) or 40 μg/mL anti-IgG control antibody (AB-108-C, R&D Systems, Minneapolis, Minn.) was added to each trans-well insert at the start of the assay.
# Subsequently, 5×10^4 cancer cells were seeded into 24-well plates in the presence of each drug or DMSO and allowed to attach for 16 hours prior to starting the assay. Human umbilical vein endothelial cells (HUVEC cells) were serum-starved in 0.2% FBS-containing media overnight. The following day, 1×10^5 HUVEC cells were seeded into a 3.0 μm HTS Fluoroblock insert (351151, BD Falcon) fitted into each well containing the cancer cells at the bottom. The HUVEC cells were allowed to migrate towards the cancer cells for 20 hours, after which the inserts were washed in PBS, fixed in 4% PFA, labeled with DAPI, and mounted on slides. The basal side of each insert was imaged using an inverted fluorescence microscope (Zeiss Axiovert 40 CFL) at 5× magnification, and the number of DAPI-positive cells was quantified using ImageJ.
# [5] = system: melanoma cells (MeWo, MeWo-LM2, HT-144, SK-Mel-334.2) and endothelial cells; test: In vitro cell proliferation, viability and serum starvation assays; assay type: cell-based, human; conditions: MeWo, HT-144, SK-Mel-334.2; 1 μM, 5 days
# Description: To determine the effects of miR-199a or miR-1908 over-expression and combinatorial LNA-induced miRNA inhibition on cell proliferation, 2.5×10^4 cells were seeded in triplicate in 6-well plates, and viable cells were counted after 5 days. […] Viable cells were counted after 8, 24, 48, 72, and 120 hours.
# The number of viable cells was counter after 8, 16, and 24 hours.
# To determine the effects of GW3965, T0901317, and Bexarotene on in vitro cell growth, 2.5×10^4 melanoma cells were seeded in triplicate in 6-well plates and cultured in the presence of DMSO, GW3965, T0901317, or Bexarotene at 1 μM each. After 5 days, the number of viable and dead cells was counted using the trypan blue dye (72-57-1, Sigma-Aldrich), which selectively labels dead cells.
structure (smiles),measurement,setting,value
Fc1ccc(-c2c3cccc(C(F)(F)F)c3nn2Cc2ccc(F)cc2Cl)cc1 [LXR-623 3],ApoE expression induction,ApoE,varied degrees of ApoE expression induction
CN(C)/N=N/c1[nH]cnc1C(N)=O [dacarbazine],growth of the DTIC-sensitive parental line,[1],significantly suppressed
same,tumor growth by B16F10 DTIC-resistant cells,[1],did not affect
CC(C)(O)c1cn(-c2ccc(-c3cc(F)c(CO)c(S(C)(=O)=O)c3)cc2F)c(C(C)(C)c2c(Cl)cccc2Cl)n1 [Compound 12],ApoE expression induction,ApoE; listed as WO-2010-0138598 Ex. 9,varied degrees of ApoE expression induction; also recorded: potently induce
same,"inhibition of in vitro cancer progression phenotypes (cell invasion, endothelial recruitment)","[2]; MeWo cells, relative to lower potency LXR agonists",more effective
same,melanoma primary tumor growth,[3],significantly inhibited
CC(C)(O)c1cn(-c2ccc(-c3cccc(S(C)(=O)=O)c3)cc2)c(C(C)(C)c2ccccc2Cl)n1 [Compound 38],ApoE expression induction,ApoE,varied degrees of ApoE expression induction
C=C(c1ccc(C(=O)O)cc1)c1cc2c(cc1C)C(C)(C)CCC2(C)C [bexarotene],ability of melanoma cells to invade through matrigel,"[2]; MeWo, HT-144, SK-Mel-2, SK-Mel-334.2",suppressed invasion only in half of the melanoma lines tested
same,ability of melanoma cells to recruit endothelial cells,[4],did not significantly affect
same,cell proliferation or cell viability rates,[5],did not affect
